Source: the NIST ThermoML archive (doi:10.1021/je201009c)

Key:
[1] = for surface tension liquid-gas: Capillary rise; for viscosity / mass density: Liquid; for viscosity: Falling or rolling sphere viscometry; for mass density: Vibrating tube method
[2] = refractive index (Na D-line) (dimensionless); conditions: 101.33 kPa, Liquid, Standard Abbe refractometry
[3] = xn = mol fraction of the nth substance listed; conditions: for surface tension liquid-gas: Capillary rise; for viscosity / mass density: Liquid; for viscosity: Falling or rolling sphere viscometry; for mass density: Vibrating tube method
[4] = refractive index (Na D-line) (dimensionless); xn = mol fraction of the nth substance listed; conditions: Liquid, Standard Abbe refractometry

OCc1ccccc1 [benzenemethanol]
Conditions	refractive index, 293.15 K	refractive index, 303.15 K	refractive index, 313.15 K	refractive index, 323.15 K	surface tension liquid-gas, 293.15 K [mN/m]	surface tension liquid-gas, 303.15 K [mN/m]	surface tension liquid-gas, 313.15 K [mN/m]	surface tension liquid-gas, 323.15 K [mN/m]
[1]	–	–	–	–	39.2	38.1	37.2	36.3
[2]	1.54049	1.53635	1.53215	1.52796	–	–	–	–

[1]
Conditions	mass density, 293.15 K [kg/m3]	mass density, 303.15 K [kg/m3]	mass density, 313.15 K [kg/m3]	mass density, 323.15 K [kg/m3]	viscosity, 293.15 K [mPa·s]	viscosity, 303.15 K [mPa·s]	viscosity, 313.15 K [mPa·s]	viscosity, 323.15 K [mPa·s]
100.8 kPa	1045.44	1037.45	1029.61	1021.5	6.287	4.579	3.335	2.545
101 kPa	1045.44	1037.45	1029.61	1021.5	6.287	4.579	3.335	2.545

OCc1ccccc1 [benzenemethanol] + CC(=O)OCc1ccccc1
[3], x2 = 0
Conditions	surface tension liquid-gas [mN/m]
293.15 K	39.2
303.15 K	38.1
313.15 K	37.2
323.15 K	36.3

101 kPa, x2 = 0
Conditions	mass density, [3] [kg/m3]	refractive index, [4]	viscosity, [3] [mPa·s]
293.15 K	1045.44	1.54049	6.287
303.15 K	1037.45	1.53635	4.579
313.15 K	1029.61	1.53215	3.335
323.15 K	1021.5	1.52796	2.545

CC(=O)OCc1ccccc1 [benzyl ethanoate]
Conditions	refractive index, 293.15 K	refractive index, 303.15 K	refractive index, 313.15 K	refractive index, 323.15 K	surface tension liquid-gas, 293.15 K [mN/m]	surface tension liquid-gas, 303.15 K [mN/m]	surface tension liquid-gas, 313.15 K [mN/m]	surface tension liquid-gas, 323.15 K [mN/m]
[1]	–	–	–	–	37.3	35.6	34.3	33.2
[2]	1.50245	1.49776	1.49309	1.48834	–	–	–	–

[1]
Conditions	mass density, 293.15 K [kg/m3]	mass density, 303.15 K [kg/m3]	mass density, 313.15 K [kg/m3]	mass density, 323.15 K [kg/m3]	viscosity, 293.15 K [mPa·s]	viscosity, 303.15 K [mPa·s]	viscosity, 313.15 K [mPa·s]	viscosity, 323.15 K [mPa·s]
100.8 kPa	1055.81	1046.74	1037.42	1027.51	2.324	1.836	1.474	1.256
101 kPa	1055.81	1046.74	1037.42	1027.51	2.324	1.836	1.474	1.256

CCO [ethanol]
Conditions	refractive index, 293.15 K	refractive index, 303.15 K	refractive index, 313.15 K	refractive index, 323.15 K	surface tension liquid-gas, 293.15 K [mN/m]	surface tension liquid-gas, 303.15 K [mN/m]	surface tension liquid-gas, 313.15 K [mN/m]	surface tension liquid-gas, 323.15 K [mN/m]
[1]	–	–	–	–	22.3	21.4	20.6	19.4
[2]	1.36137	1.35712	1.35292	1.34873	–	–	–	–

[1], 100.8 kPa
Conditions	mass density [kg/m3]	viscosity [mPa·s]
293.15 K	789.1	1.183
303.15 K	780.76	0.98
313.15 K	771.99	0.822
323.15 K	763.03	0.698

CCO [ethanol] + CC(=O)OCc1ccccc1
[3], x1 = 1
Conditions	surface tension liquid-gas [mN/m]
293.15 K	22.3
303.15 K	21.4
313.15 K	20.6
323.15 K	19.4

100.8 kPa, x1 = 1
Conditions	mass density, [3] [kg/m3]	refractive index, [4]	viscosity, [3] [mPa·s]
293.15 K	789.1	1.36137	1.183
303.15 K	780.76	1.35712	0.98
313.15 K	771.99	1.35292	0.822
323.15 K	763.03	1.34873	0.698

CCO [ethanol] + OCc1ccccc1
[3], x1 = 1
Conditions	surface tension liquid-gas [mN/m]
293.15 K	22.3
303.15 K	21.4
313.15 K	20.6
323.15 K	19.4

100.8 kPa, x1 = 1
Conditions	mass density, [3] [kg/m3]	refractive index, [4]	viscosity, [3] [mPa·s]
293.15 K	789.1	1.36137	1.183
303.15 K	780.76	1.35712	0.98
313.15 K	771.99	1.35292	0.822
323.15 K	763.03	1.34873	0.698
